In ChEMBL document CHEMBL5608241, “Discovery of Novel Non-nucleoside DOT1LR231Q Inhibitors with Improved Pharmacokinetic Properties and Anti-lung Cancer Efficacy” (J Med Chem, 2024):
pIC50: −log10 of the molar value. Active and inactive are the calls of the source. The calls are words filed in the database; no cut-off is given here.

Legend:
[1] = test system: NCI-H460; assay: Antimigratory activity in human NCI-H460 cells exogenously expressing DOT1L R231Q mutant (unknown origin) (1 to 416 residues) assessed as decrease in number of migrating cells at 5 uM measured after 72 hrs by wound healing assay relative to control; assay type: functional; design: scale not given: the % may be the effect or the level left
[2] = test system: NCI-H460; assay: Inhibition of colony formation in human NCI-H460 cells exogenously expressing wildtype DOT1L (unknown origin) (1 to 416 residues) at 2.5 to 5 uM incubated for 7 to 14 days by crystal violet staining based light microscopic analysis; assay type: functional, cell-based; details: dose 2.5-5 µM, time 7-14 day
[3] = test system: NCI-H460; assay: Antiproliferative activity against human NCI-H460 cells harboring DOT1L R231Q mutant (unknown origin) (1 to 416 residues) assessed as inhibition of cell proliferation incubated for 72 hrs by CCK-8 assay; assay type: functional, cell-based; details: NCI-H460, 72 h
[4] = test system: NCI-H460; assay: Inhibition of colony formation in human NCI-H460 cells exogenously expressing DOT1L R231Q mutant (unknown origin) (1 to 416 residues) at 2.5 to 5 uM incubated for 7 to 14 days by crystal violet staining based light microscopic analysis; assay type: functional, cell-based; details: dose 2.5-5 µM, time 7-14 day
[5] = test system: NCI-H460; assay: Effect on H3K4me1 expression in human NCI-H460 cells exogenously expressing DOT1L R231Q mutant (unknown origin) (1 to 416 residues) at 5 uM by Western blot analysis; assay type: functional, cell-based
[6] = test system: NCI-H460; assay: Inhibition of MAPK/ERK signaling pathway in human NCI-H460 cells exogenously expressing DOT1L R231Q mutant (unknown origin) (1 to 416 residues) assessed as decrease in RAF1 expression at 5 uM by Western blot analysis; assay type: cell-based
[7] = Toxicity in male BALB/c-nu mouse model xenografted with human NCI-H460 cells harboring DOT1L R231Q mutant assessed as effect on spleen viscera index at 20 mg/kg, ip administered five times a week for 3 weeks; assay type: organism-based; details: in vivo, 504 h
[8] = test system: NCI-H460; assay: Effect on H3K36me2 expression in human NCI-H460 cells exogenously expressing wildtype DOT1L (unknown origin) (1 to 416 residues) at 5 uM by Western blot analysis; assay type: functional, cell-based
[9] = Toxicity in male BALB/c-nu mouse model xenografted with human NCI-H460 cells harboring DOT1L R231Q mutant assessed as effect on kidney viscera index at 20 mg/kg, ip administered five times a week for 3 weeks; assay type: organism-based; details: in vivo, 504 h
[10] = Half-life in male Sprague-Dawley rat at 20 mg/kg, ip measured after 24 hrs by LC-MS/MS analysis; assay type: ADME, organism-based; details: in vivo
[11] = test system: NCI-H460; assay: Effect on H3K4me1 expression in human NCI-H460 cells exogenously expressing wildtype DOT1L (unknown origin) (1 to 416 residues) at 5 uM by Western blot analysis; assay type: functional, cell-based
[12] = test system: NCI-H460; assay: Antimigratory activity in human NCI-H460 cells exogenously expressing DOT1L R231Q mutant (unknown origin) (1 to 416 residues) assessed as decrease in number of migrating cells at 2.5 to 5 uM measured after 72 hrs by wound healing assay; assay type: functional, cell-based; details: dose 2.5-5 µM
[13] = test system: NCI-H460; assay: Inhibition of colony formation in DOT1L knockdown human NCI-H460 cells at 2.5 to 5 uM incubated for 7 to 14 days by crystal violet staining based light microscopic analysis; assay type: functional, cell-based; details: dose 2.5-5 µM, time 7-14 day
[14] = test system: NCI-H460; assay: Inhibition of sphere formation in human NCI-H460 cells exogenously expressing wildtype DOT1L (unknown origin) (1 to 416 residues) assessed as reduction in self-renewal at 5 uM incubated for 7 to 14 days by inverted microscopic analysis relative to control; assay type: functional; details: time 7-14 day
[15] = test system: NCI-H460; assay: Inhibition of ERK phosphorylation in human NCI-H460 cells exogenously expressing wildtype DOT1L (unknown origin) (1 to 416 residues) at 5 uM by Western blot analysis; assay type: cell-based
[16] = test system: NCI-H460; assay: Downregulation of H3K79me2 expression in human NCI-H460 cells exogenously expressing DOT1L R231Q mutant (unknown origin) (1 to 416 residues) at 5 uM by Western blot analysis; assay type: functional, cell-based
[17] = test system: NCI-H460; assay: Effect on H3K79me2 expression in human NCI-H460 cells exogenously expressing wildtype DOT1L (unknown origin) (1 to 416 residues) at 5 uM by Western blot analysis; assay type: functional, cell-based
[18] = Tmax in male Sprague-Dawley rat at 20 mg/kg, iv measured after 24 hrs by LC-MS/MS analysis; assay type: ADME, organism-based; details: in vivo
[19] = Clearance in male Sprague-Dawley rat at 20 mg/kg, iv measured after 24 hrs by LC-MS/MS analysis; assay type: ADME, organism-based; details: in vivo
[20] = test system: NCI-H460; assay: Inhibition of colony formation in human NCI-H460 cells exogenously expressing wildtype DOT1L (unknown origin) (1 to 416 residues) at 5 uM incubated for 7 to 14 days by crystal violet staining based light microscopic analysis relative to control; assay type: functional; details: time 7-14 day
[21] = biological target: Dual specificity mitogen-activated protein kinase kinase; MEK1/2 (Homo sapiens) (UniProt P36507+Q02750); assay: Inhibition of MEK phosphorylation in human NCI-H460 cells exogenously expressing DOT1L R231Q mutant (unknown origin) (1 to 416 residues) at 5 uM by Western blot analysis; assay type: cell-based
Dual specificity mitogen-activated protein kinase kinase; MEK1/2 (Homo sapiens), sequence (P36507 whole entry, looked up, the tested form may be a part): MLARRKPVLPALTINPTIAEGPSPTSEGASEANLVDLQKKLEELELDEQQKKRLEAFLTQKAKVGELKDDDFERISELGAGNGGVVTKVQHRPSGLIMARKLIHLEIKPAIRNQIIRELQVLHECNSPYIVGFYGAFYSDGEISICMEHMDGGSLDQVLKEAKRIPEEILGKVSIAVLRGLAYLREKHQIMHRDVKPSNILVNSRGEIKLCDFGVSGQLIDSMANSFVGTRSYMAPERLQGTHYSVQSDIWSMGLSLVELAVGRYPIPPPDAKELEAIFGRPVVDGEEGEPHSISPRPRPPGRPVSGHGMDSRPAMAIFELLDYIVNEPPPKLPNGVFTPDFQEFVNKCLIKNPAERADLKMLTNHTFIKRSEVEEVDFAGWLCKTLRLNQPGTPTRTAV
Dual specificity mitogen-activated protein kinase kinase; MEK1/2 (Homo sapiens), sequence (Q02750 whole entry, looked up, the tested form may be a part): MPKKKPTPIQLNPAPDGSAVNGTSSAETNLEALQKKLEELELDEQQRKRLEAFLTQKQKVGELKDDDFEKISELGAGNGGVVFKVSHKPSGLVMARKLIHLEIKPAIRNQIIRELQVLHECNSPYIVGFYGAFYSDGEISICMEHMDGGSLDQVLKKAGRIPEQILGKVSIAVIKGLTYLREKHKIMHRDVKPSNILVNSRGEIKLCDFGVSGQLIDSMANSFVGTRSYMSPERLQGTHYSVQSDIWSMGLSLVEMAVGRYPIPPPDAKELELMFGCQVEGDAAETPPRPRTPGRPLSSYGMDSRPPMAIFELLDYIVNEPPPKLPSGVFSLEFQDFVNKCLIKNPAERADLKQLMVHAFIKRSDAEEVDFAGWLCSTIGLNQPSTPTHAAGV

[22] = Volume of distribution at steady state in male Sprague-Dawley rat at 20 mg/kg, iv measured after 24 hrs by LC-MS/MS analysis; assay type: ADME, organism-based; details: in vivo, read-out: Vdss
[23] = test system: NCI-H460; assay: Antimigratory activity in human NCI-H460 cells exogenously expressing wildtype DOT1L (unknown origin) (1 to 416 residues) assessed as decrease in number of migrating cells at 5 uM measured after 72 hrs by wound healing assay relative to control; assay type: functional; design: scale not given: the % may be the effect or the level left
[24] = test system: NCI-H460; assay: Induction of DOT1L R231Q mutant (unknown origin) (1 to 416 residues) stabilization exogenously expressed in human NCI-H460 cells assessed as protection against protease E-mediated degradation preincubated for 7 days followed by protease digestion for 10 mins by DARTS assay; assay type: cell-based; details: dose 1.25-5 µM, time 10090.0 min
[25] = test system: NCI-H460; assay: Antiinvasive activity against human NCI-H460 cells exogenously expressing wildtype DOT1L (unknown origin) (1 to 416 residues) assessed as inhibition of cell invasion at 2.5 to 5 uM incubated for 72 hrs by crystal violet staining based transwell invasion assay; assay type: functional; details: dose 2.5-5 µM
[26] = Cmax in male Sprague-Dawley rat at 20 mg/kg, ip measured after 24 hrs by LC-MS/MS analysis; assay type: ADME, organism-based; details: in vivo
[27] = MRT (0 to infinity) in male Sprague-Dawley rat at 20 mg/kg, ip measured after 24 hrs by LC-MS/MS analysis; assay type: ADME, organism-based; details: in vivo
[28] = test system: NCI-H460; assay: Inhibition of DOT1L R231Q mutant (unknown origin) (1 to 416 residues) exogenously expressed in human NCI-H460 cells assessed as reduction in H3K79me2 level at 5 uM by Western blot analysis relative to control; assay type: cell-based
[29] = Toxicity in male BALB/c-nu mouse model xenografted with human NCI-H460 cells harboring DOT1L R231Q mutant assessed as effect on body weight at 20 mg/kg, ip administered five times a week for 3 weeks; assay type: organism-based; details: in vivo, 504 h
[30] = AUC (0 to infinity) in male Sprague-Dawley rat at 20 mg/kg, ip measured after 24 hrs by LC-MS/MS analysis; assay type: ADME, organism-based; details: in vivo

pIC50 [3]: 5.55 | half-life [10]: 6.06 h | Tmax [18]: 4.98 min | clearance [19]: 55.2 mL/min/kg | inhibition [21]: Active | Vd [22]: 14.4 L/kg | Cmax [26]: 2570 ng/mL | MRT inf [27]: 5.42 h | AUC(0-inf) [30]: 5710 ng·h/mL
SMILES: CC(C)(C)c1ccc(NC(=O)NCCCN(CCCN2CCOCC2)CC2(O)CCN(c3nc(Cl)nc4sccc34)C2)cc1 (stereo not given)
Activity [1]: 60.4% | inhibition [2]: Active | inhibition [4]: Active | Activity [5]: inactive | inhibition [6]: Active | Activity [7]: Non-Toxic | Activity [8]: inactive | Activity [9]: Non-Toxic | Activity [11]: inactive | Activity [12]: Active | inhibition [13]: inactive | inhibition at 5 µM [14]: 68.9% | inhibition [15]: inactive | Activity [16]: Active | Activity [17]: inactive | inhibition at 5 µM [20]: 42% | Activity [23]: 38.3% | Activity [24]: Dose-Dependent Effect | Activity [25]: Active | inhibition [28]: > 50% | Activity [29]: Non-Toxic
